According to paper PMC7255801, “Disease-associated mutations in the human TRPM3 render the channel overactive via two distinct mechanisms” (eLife, 2020):

Columns and labels:
Format in all cases: cell-based
[1] = target: T1, human M2 muscarinic receptors co-expressed with wild-type hTRPM3_1325 (Homo sapiens, UniProt P08172); experiment: M2 muscarinic receptor inhibition of TRPM3 currents, oocytes, wild type channel; settings: read-out: Inhibition of TRPM3 currents induced by 50 μM PregS
T1 construct: expressed in transfected cells; host or cells: Xenopus laevis oocytes (cRNA injection)
T1 sequence (P08172 1-466): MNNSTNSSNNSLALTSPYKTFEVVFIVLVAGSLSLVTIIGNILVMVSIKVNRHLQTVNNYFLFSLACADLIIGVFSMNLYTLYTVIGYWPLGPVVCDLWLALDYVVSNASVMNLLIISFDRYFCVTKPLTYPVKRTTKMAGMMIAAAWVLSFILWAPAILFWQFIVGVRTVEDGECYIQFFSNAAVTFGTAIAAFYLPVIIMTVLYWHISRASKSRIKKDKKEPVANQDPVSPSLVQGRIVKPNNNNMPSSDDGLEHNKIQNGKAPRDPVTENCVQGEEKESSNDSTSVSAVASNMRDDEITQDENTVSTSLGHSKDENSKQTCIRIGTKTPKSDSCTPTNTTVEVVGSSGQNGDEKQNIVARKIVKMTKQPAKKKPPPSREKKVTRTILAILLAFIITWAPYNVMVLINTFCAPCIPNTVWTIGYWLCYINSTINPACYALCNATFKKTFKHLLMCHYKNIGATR
Description: (§1) Xenopus laevis oocytes were prepared as described earlier ([Badheka et al., 2015]). All animal procedures were approved by the Institutional Animal Care and Use Committee at Rutgers New Jersey Medical School. In brief, frogs were anesthetized in 0.25% ethyl 3-aminobenzoate methanesulfonate solution (MS222; Sigma-Aldrich); bags of ovaries were removed surgically from the anesthetized frogs. Individual oocytes were obtained by overnight digestion at 16°C in 0.2–0.3 mg/ml type 1A collagenase (Sigma-Aldrich), dissolved in a solution containing 82.5 mM NaCl, 2 mM KCl, 1 mM MgCl2, and […] HEPES, pH 7.4 (OR2 solution). The next day the collagenase containing solution was discarded and the oocytes were washed multiple times with OR2 solution. The oocytes were maintained in OR2 solution supplemented with 1.8 mM CaCl2, 100 IU/ml penicillin, and 100 μg/ml streptomycin at 16°C. cRNA was transcribed from the linearized human TRPM3 (hTRPM3) cDNA clone ([Grimm et al., 2003]), or its mutants in the pGEMSH vector using the mMessage mMachine kit (Thermo Fisher Scientific). cRNA (40 ng) was microinjected into individual oocytes, using a nanoliter-injector system (Warner Instruments). For combined injection of wild-type and mutant TRPM3 for Figures 4E–G, […] total cRNA was injected in a 1:1 ratio. […]

[2] = target: T2, human M2 muscarinic receptors co-expressed with hTRPM3_1325 V990M (Homo sapiens, UniProt P08172); experiment: M2 muscarinic receptor inhibition of TRPM3 currents, oocytes, V990M mutant; settings: 5 μM ACh, 100 mV
T2 construct: expressed in transfected cells; host or cells: Xenopus laevis oocytes (cRNA injection)
T2 sequence (P08172 1-466): T1 sequence (P08172 1-466)
Description: as §1

[3] = target: T3, hTRPM3α2 P1092Q (Homo sapiens, UniProt Q9HCF6, P1115Q); experiment: Intracellular Ca2+ assay (GCaMP6f) in 96-well plates, HEK293 cells, P1092Q mutant; settings: very high basal Ca2+ levels
T3 construct: host or cells: HEK293
T3 sequence (Q9HCF6 1-1709 isoform Q9HCF6-5 P1092Q): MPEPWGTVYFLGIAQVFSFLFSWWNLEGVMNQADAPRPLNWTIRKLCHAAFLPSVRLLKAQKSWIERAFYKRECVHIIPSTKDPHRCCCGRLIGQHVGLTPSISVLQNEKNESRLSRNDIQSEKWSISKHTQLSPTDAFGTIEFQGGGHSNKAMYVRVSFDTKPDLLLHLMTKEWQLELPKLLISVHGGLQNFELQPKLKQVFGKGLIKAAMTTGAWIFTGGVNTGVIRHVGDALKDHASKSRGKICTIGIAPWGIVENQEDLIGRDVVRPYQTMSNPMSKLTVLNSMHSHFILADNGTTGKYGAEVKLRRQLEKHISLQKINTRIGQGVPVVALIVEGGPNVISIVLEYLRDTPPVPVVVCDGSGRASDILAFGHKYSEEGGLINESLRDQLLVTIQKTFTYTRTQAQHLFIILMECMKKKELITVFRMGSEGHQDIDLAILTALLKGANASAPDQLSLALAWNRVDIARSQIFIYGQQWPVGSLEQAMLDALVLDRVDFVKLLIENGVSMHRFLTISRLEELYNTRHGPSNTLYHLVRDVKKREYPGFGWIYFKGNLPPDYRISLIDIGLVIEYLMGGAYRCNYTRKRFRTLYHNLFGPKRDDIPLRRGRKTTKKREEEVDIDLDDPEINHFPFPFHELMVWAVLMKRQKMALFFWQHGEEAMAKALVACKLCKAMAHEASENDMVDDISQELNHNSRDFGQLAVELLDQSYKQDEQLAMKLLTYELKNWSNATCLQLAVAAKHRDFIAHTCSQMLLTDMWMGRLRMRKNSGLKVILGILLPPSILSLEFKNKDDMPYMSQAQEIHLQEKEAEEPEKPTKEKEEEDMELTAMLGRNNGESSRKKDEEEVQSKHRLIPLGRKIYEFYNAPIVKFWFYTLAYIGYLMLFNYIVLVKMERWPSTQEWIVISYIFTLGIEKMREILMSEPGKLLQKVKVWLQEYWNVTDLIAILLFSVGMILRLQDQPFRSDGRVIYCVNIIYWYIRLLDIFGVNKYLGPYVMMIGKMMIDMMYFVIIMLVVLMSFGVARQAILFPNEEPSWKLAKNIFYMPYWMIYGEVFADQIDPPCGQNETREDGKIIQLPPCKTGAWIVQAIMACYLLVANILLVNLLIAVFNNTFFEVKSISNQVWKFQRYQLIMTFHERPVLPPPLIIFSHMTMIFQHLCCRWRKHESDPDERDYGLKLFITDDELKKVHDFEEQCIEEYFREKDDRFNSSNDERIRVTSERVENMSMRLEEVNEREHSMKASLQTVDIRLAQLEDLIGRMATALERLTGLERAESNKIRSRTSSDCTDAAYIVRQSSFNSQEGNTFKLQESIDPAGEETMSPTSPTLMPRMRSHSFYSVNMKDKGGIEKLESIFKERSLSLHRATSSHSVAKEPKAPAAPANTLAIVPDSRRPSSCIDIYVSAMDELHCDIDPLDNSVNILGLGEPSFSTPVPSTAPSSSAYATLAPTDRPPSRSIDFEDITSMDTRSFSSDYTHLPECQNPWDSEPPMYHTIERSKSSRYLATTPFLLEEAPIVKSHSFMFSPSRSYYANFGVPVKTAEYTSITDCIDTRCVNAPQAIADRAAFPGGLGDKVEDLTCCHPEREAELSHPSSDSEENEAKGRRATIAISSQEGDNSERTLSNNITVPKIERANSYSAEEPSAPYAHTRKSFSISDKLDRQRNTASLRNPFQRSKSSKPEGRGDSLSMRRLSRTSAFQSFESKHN
Description: (§2) Intracellular Ca^2+ measurements were performed using a Flexstation-3 96‐well plate reader with rapid well injection (Molecular Devices) as described earlier ([Hughes et al., 2019]) with some modifications. Briefly Human Embryonic Kidney 293 (HEK293) cells were purchased from American Type Culture Collection (ATCC), Manassas, VA, (catalogue number CRL-1573), RRID:CVCL_0045; cell identity was verified by STR analysis by ATCC. HEK293 cells were cultured in MEM supplemented with 10% FBS and 100 IU/ml penicillin plus 100 µg/ml streptomycin in 5% CO2 at 37°C. Additional cell authentication was not performed, but passage number of the cells was monitored, and cells were used up to passage number 25–30 from purchase, when a new batch of cells was thawed with low passage number; cells were tested for the lack of mycoplasma infection. HEK293 cells were transfected with hTRPM3α2-GFP, or its mutants (200 ng) and GCaMP6 (1 μg) using the Effectene reagent (Qiagen). […] GCaMP6 signal was measured at excitation wavelengths 485 nm and fluorescence emission was detected at 525 nm. Sampling interval was 0.86 s and four parallel reads were performed for each condition. […] For measurements at 37°C the MEM medium used to culture the cells was replaced with the measurement solution preheated to 37°C, and the plate was placed in the plate reader warmed to 37°C using its built-in temperature controller.

[4] = target: T4, hTRPM3α2 V992M (Homo sapiens, UniProt Q9HCF6, V1015M); experiment: Intracellular Ca2+ assay (GCaMP6f) in 96-well plates, HEK293 cells, V992M mutant; settings: very high basal Ca2+ levels
T4 construct: host or cells: HEK293
T4 sequence (Q9HCF6 1-1709 isoform Q9HCF6-5 V992M): as the sequence (Q9HCF6 1-1709 isoform Q9HCF6-5 P1092Q) above, with V992M, Q1092P counted along it
Description: as §2

Row | Molecule | inhibition at 5 µM [1] [%] | Inhibition of TRPM3 currents induced by 50 μM PregS [2] | Ca2+ response to agonist at 37°C [3] | Ca2+ response to agonist at 37°C [4]
1 | CC(=O)OCC[N+](C)(C)C [ACh, acetylcholine] | ~50 | essentially not inhibited | – | –
2 | pregnenolone sulfate [PregS] | – | – | not further increased | not further increased
